“And” between values parts separate entries of the source, which are not always exact repeats. Identical values can stand only once. Inconclusive results and toxic doses are left out. Rule as the data show it: active = T/C of 150% or more; inactive = T/C below 125%.
Tested on: L1210 leukemia ip in BDF1 mice, survival T/C
Test: NCI In Vivo Anticancer Drug Screen. Data for tumor model L1210 Leukemia (intraperitoneal) in B6D2F1 (BDF1) mice
Details: endpoint: mean survival time, higher = longer survival
Summary of the method: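 In this screen, tumor-bearing mice given compound are compared to those given vehicle, and their survival values are reported as a treated-to-control quotient.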

[1] = dose: 100.0 mg/kg/injection, schedule: Q01DX001 (ip), vehicle: carboxymethylcellulose (CMC)
[2] = dose: 200.0 mg/kg/injection, schedule: Q01DX001 (ip), vehicle: carboxymethylcellulose (CMC)
[3] = dose: 400.0 mg/kg/injection, schedule: Q01DX001 (ip), vehicle: carboxymethylcellulose (CMC)
[4] = dose: 50.0 mg/kg/injection, schedule: Q01DX009 (ip), vehicle: saline
[5] = dose: 100.0 mg/kg/injection, schedule: Q01DX009 (ip), vehicle: saline
[6] = dose: 100.0 mg/kg/injection, schedule: Q04DX003 (ip), vehicle: saline
[7] = dose: 100.0 mg/kg/injection, schedule: Q04DX003 (ip), vehicle: Klucel (hydroxypropylcellulose) (HPC)
[8] = dose: 200.0 mg/kg/injection, schedule: Q04DX003 (ip), vehicle: Klucel (hydroxypropylcellulose) (HPC)
[9] = dose: 400.0 mg/kg/injection, schedule: Q04DX003 (ip), vehicle: Klucel (hydroxypropylcellulose) (HPC)
[10] = dose: 100.0 mg/kg/injection, schedule: Q04DX003 (ip), vehicle: saline with Tween-80
[11] = dose: 200.0 mg/kg/injection, schedule: Q04DX003 (ip), vehicle: saline with Tween-80
[12] = dose: 100.0 mg/kg/injection, schedule: Q01DX009 (ip), vehicle: Klucel (hydroxypropylcellulose) (HPC)
[13] = dose: 200.0 mg/kg/injection, schedule: Q01DX009 (ip), vehicle: Klucel (hydroxypropylcellulose) (HPC)
[14] = dose: 100.0 mg/kg/injection, schedule: Q04DX002 (ip), vehicle: saline with Tween-80
[15] = dose: 200.0 mg/kg/injection, schedule: Q04DX002 (ip), vehicle: saline with Tween-80
[16] = dose: 400.0 mg/kg/injection, schedule: Q04DX002 (ip), vehicle: saline with Tween-80
[17] = dose: 100.0 mg/kg/injection, schedule: Q01DX001 (ip), vehicle: saline
[18] = dose: 200.0 mg/kg/injection, schedule: Q01DX001 (ip), vehicle: saline
[19] = dose: 400.0 mg/kg/injection, schedule: Q01DX001 (ip), vehicle: saline
[20] = dose: 400.0 mg/kg/injection, schedule: Q01DX009 (ip), vehicle: Klucel (hydroxypropylcellulose) (HPC)

Measured: T/C

CCNc1nc2c(N)ncnc2n1C1CC(O)C(CO)O1 (stereo unspecified)
inactive: [1] 96 % of control | [2] 98 % of control | [3] 93 % of control

CCOc1ccc(Br)cc1/C=N\N=C\c1cc(Br)ccc1OCC
inactive: dose: 25.0 mg/kg/injection, schedule: Q01DX009 (ip), vehicle: saline 101 % of control | [4] 100 % of control | [5] 100 % of control | [6] 86 % of control

O=C(COc1ccc(Cl)cc1)Nc1cc(Cl)ccc1Cl
inactive: dose: 100.0 mg/kg/injection, schedule: Q01DX001 (ip), vehicle: Klucel (hydroxypropylcellulose) (HPC) 113 % of control | [7] 88 % of control | dose: 200.0 mg/kg/injection, schedule: Q01DX001 (ip), vehicle: Klucel (hydroxypropylcellulose) (HPC) 95 % of control | [8] 88 % of control | dose: 400.0 mg/kg/injection, schedule: Q01DX001 (ip), vehicle: Klucel (hydroxypropylcellulose) (HPC) 97 % of control | [9] 90 % of control

CCOC(=O)c1c(-c2ccccc2)csc1N
inactive: dose: 50.0 mg/kg/injection, schedule: Q04DX003 (ip), vehicle: saline with Tween-80 97 % of control | [10] 94 % of control | [11] 90 % of control

COc1ccc(OC(=O)Nc2cc(C)ccc2C)cc1
inactive: [12] 91 % of control | [7] 94 % of control | [13] 90 % of control | [8] 97 % of control | [9] 108 % of control

CCOC(=O)C(C/C=C/c1ccccc1)C(C)=O (stereo unspecified)
inactive: [14] 90 % of control | [15] 97 % of control | [16] 90 % of control

O=C(/C=C/c1ccc([N+](=O)[O-])cc1)Nc1cccc(S(=O)(=O)F)c1
inactive: [17] 107 % of control | [18] 112 % of control | [19] 101 % of control

CC1(C)N=C(N)N=C(N)N1c1ccc(CCc2ccc(Cl)cc2S(=O)(=O)F)c(Cl)c1
inactive: dose: 100.0 mg/kg/injection, schedule: Q01DX001 (ip), vehicle: saline with Tween-80 91 % of control | dose: 200.0 mg/kg/injection, schedule: Q01DX001 (ip), vehicle: saline with Tween-80 94 % of control | dose: 400.0 mg/kg/injection, schedule: Q01DX001 (ip), vehicle: saline with Tween-80 97 % of control

CCCCCCCCN(C)N=Nc1ccccc1C(=O)O
inactive: dose: 12.5 mg/kg/injection, schedule: Q01DX009 (ip), vehicle: Klucel (hydroxypropylcellulose) (HPC) 109 % of control | dose: 12.5 mg/kg/injection, schedule: Q04DX003 (ip), vehicle: Klucel (hydroxypropylcellulose) (HPC) 102 % of control | dose: 25.0 mg/kg/injection, schedule: Q01DX009 (ip), vehicle: Klucel (hydroxypropylcellulose) (HPC) 106 % of control and 116 % of control | dose: 25.0 mg/kg/injection, schedule: Q04DX003 (ip), vehicle: Klucel (hydroxypropylcellulose) (HPC) 95 % of control | dose: 50.0 mg/kg/injection, schedule: Q01DX009 (ip), vehicle: Klucel (hydroxypropylcellulose) (HPC) 122 % of control | dose: 50.0 mg/kg/injection, schedule: Q04DX003 (ip), vehicle: Klucel (hydroxypropylcellulose) (HPC) 108 % of control | dose: 60.0 mg/kg/injection, schedule: Q01DX009 (ip), vehicle: Klucel (hydroxypropylcellulose) (HPC) 122 % of control | [7] 114 % of control | [13] 114 % of control | [20] 92 % of control

CCCCCCCCCCCCCCCCC(C)(O)C#CC(C)(O)CCCCCCCCCCCCCCCC (stereo unspecified)
inactive: dose: 100.0 mg/kg/injection, schedule: Q01DX009 (ip), vehicle: other 101 % of control | [14] 101 % of control | dose: 200.0 mg/kg/injection, schedule: Q01DX009 (ip), vehicle: other 97 % of control | [15] 90 % of control | dose: 400.0 mg/kg/injection, schedule: Q01DX009 (ip), vehicle: other 101 % of control | [16] 97 % of control

[N-]=[N+]=C1Cc2ccccc2C1=O
inactive: [12] 103 % of control | [7] 102 % of control | [13] 100 % of control | [8] 105 % of control | [9] 92 % of control

Nc1ccc2c(c1)Cc1cc(NC=O)ccc1-2
inactive: [1] 101 % of control | [2] 97 % of control | [3] 92 % of control

COC(=O)c1nc(-c2ccc3c(n2)C(=O)C(N)=C(OC)C3=O)c(N)c(-c2ccc(OC)c(OC)c2O)c1C
inactive: dose: 0.5 mg/kg/injection, schedule: Q01DX015 (ip), vehicle: water 116 % of control | dose: 1.0 mg/kg/injection, schedule: Q01DX001 (ip), vehicle: water 110 % of control | dose: 1.0 mg/kg/injection, schedule: Q01DX015 (ip), vehicle: water 119 % of control | dose: 2.0 mg/kg/injection, schedule: Q01DX001 (ip), vehicle: water 109 % of control | dose: 2.0 mg/kg/injection, schedule: Q01DX015 (ip), vehicle: water 98 % of control | dose: 3.0 mg/kg/injection, schedule: Q01DX001 (ip), vehicle: carboxymethylcellulose (CMC) 104 % of control | dose: 6.0 mg/kg/injection, schedule: Q01DX001 (ip), vehicle: carboxymethylcellulose (CMC) 110 % of control | dose: 12.0 mg/kg/injection, schedule: Q01DX001 (ip), vehicle: carboxymethylcellulose (CMC) 105 % of control | dose: 24.0 mg/kg/injection, schedule: Q01DX001 (ip), vehicle: carboxymethylcellulose (CMC) 104 % of control | dose: 48.0 mg/kg/injection, schedule: Q01DX001 (ip), vehicle: carboxymethylcellulose (CMC) 105 % of control

C=C(NC(=O)Cc1ccccc1)C(=O)OC
inactive: dose: 100.0 mg/kg/injection, schedule: Q01DX009 (ip), vehicle: saline with Tween-80 92 % of control | [10] 102 % of control | dose: 200.0 mg/kg/injection, schedule: Q01DX009 (ip), vehicle: saline with Tween-80 95 % of control | [11] 95 % of control | dose: 400.0 mg/kg/injection, schedule: Q01DX009 (ip), vehicle: saline with Tween-80 95 % of control | dose: 400.0 mg/kg/injection, schedule: Q04DX003 (ip), vehicle: saline with Tween-80 91 % of control

C1CNC2CCCC2C1 (stereo unspecified)
inactive: dose: 75.0 mg/kg/injection, schedule: Q01DX001 (ip), vehicle: carboxymethylcellulose (CMC) 103 % of control

Brc1ccc(C=C2c3ccccc3-c3ccccc32)cc1
inactive: [12] 100 % of control | [7] 96 % of control | [13] 97 % of control | [8] 97 % of control | [20] 100 % of control | [9] 94 % of control

CC(C)CCCC(C)CCCC(C)CCCC(C)CC(=O)O (stereo unspecified)
inactive: dose: 100.0 mg/kg/injection, schedule: Q01DX001 (ip), vehicle: olive oil, sesame oil, peanut oil 103 % of control | dose: 200.0 mg/kg/injection, schedule: Q01DX001 (ip), vehicle: olive oil, sesame oil, peanut oil 101 % of control | dose: 400.0 mg/kg/injection, schedule: Q01DX001 (ip), vehicle: olive oil, sesame oil, peanut oil 91 % of control

CC(C)(CCC(C)(C)NCCC#N)NCCC#N
inactive: [4] 104 % of control | [5] 104 % of control | [6] 105 % of control | dose: 200.0 mg/kg/injection, schedule: Q01DX009 (ip), vehicle: saline 105 % of control | dose: 200.0 mg/kg/injection, schedule: Q04DX003 (ip), vehicle: saline 103 % of control | dose: 400.0 mg/kg/injection, schedule: Q01DX009 (ip), vehicle: saline 101 % of control | dose: 400.0 mg/kg/injection, schedule: Q04DX003 (ip), vehicle: saline 95 % of control

CCCCNC(=S)C(CC)CCCC (stereo unspecified)
inactive: dose: 100.0 mg/kg/injection, schedule: Q04DX002 (sc), vehicle: olive oil, sesame oil, peanut oil 99 % of control | dose: 200.0 mg/kg/injection, schedule: Q04DX002 (sc), vehicle: olive oil, sesame oil, peanut oil 99 % of control | dose: 400.0 mg/kg/injection, schedule: Q04DX002 (sc), vehicle: olive oil, sesame oil, peanut oil 99 % of control

CN(C)C1CCC(N=Nc2cc([N+](=O)[O-])ccc2C(=O)O)CC1 (stereo unspecified)
inactive: dose: 75.0 mg/kg/injection, schedule: Q01DX001 (ip), vehicle: acetone 105 % of control | dose: 150.0 mg/kg/injection, schedule: Q01DX001 (ip), vehicle: acetone 97 % of control | dose: 300.0 mg/kg/injection, schedule: Q01DX001 (ip), vehicle: acetone 90 % of control

CCCCC(=O)CCl
inactive: [17] 103 % of control | [18] 120 % of control | [19] 114 % of control
